# Measured values from US20100196342A1, “MOOD, MEMORY AND COGNITIVE FUNCTION WITH PYRIDOXAL 5'-PHOSPHATE” (priority 2007, published 2010).
# Tests used:
# males, ages 70-79 years = settings: 20 mg daily for 3 months; cited from earlier work
# healthy people = settings: U.S. National Academy of Sciences recommendation; cited from earlier work
# healthy subjects = assay: Phase I single ascending dose study, safety and tolerance; type: in vivo, human; settings: single oral dosages up to 4000 mg
# Protocol: A Phase I, single center, single-dose, open-label, sequential ascending dose study to evaluate the safety and tolerance of pyridoxal-5′-phosphate, in an enteric-coated tablet, following a single dose of 250 mg, 750 mg, 1000 mg, and 4000 mg in healthy subjects under fasting conditions was conducted.
# A total of 32 healthy, adult subjects signed the study-specific Informed Consent Form and were confined in the clinical study unit; of these subjects, 24 (6 subjects in each dose level; 3 males and 3 females) were dosed and were enrolled in the study; all of these enrolled subjects completed the study. Subjects were confined to the SFBC Anapharm Clinical Research Facility from at least 12 hours prior to drug administration until after the 24.0-hour post-dose blood draw.
# Subjects enrolled in this study were members of the community at large. […] All participating subjects were judged eligible for the study when assessed against the inclusion and exclusion criteria. […]
# [1] = system: Human males aged between 65 and 90; assay: Associative learning task (colour-number association recall) in aged males; type: in vivo
# Protocol: Human males aged between 65 and 90 are separated into four random groups: control, low dose of P5P (100 mg/day), medium dose of P5P (250 mg/day), and high dose of P5P (750 mg/day). All dosages are administered orally for 3 weeks before subjecting the patients to an associative learning task.
# The patients are subjected to an associative learning task, as follows. Briefly, patients are comfortably seated in front of a computer. Patients are asked to learn the associations between six colors and the numbers 1-6, using trial and error. Subjects are then required to recall this association, a defined period of time after the associations are learned. Tests are repeated, with the defined period of time increasing, until the patients are no longer able to associate the colors with the numbers.
# P2 purinoceptors = settings: cited from earlier work
# [2] = system: Individuals diagnosed with mild depression; assay: Assessment of level of depression by depression inventory scales and DSM-IV; type: in vivo, human
# Protocol: Individuals diagnosed with mild depression are divided into four groups at random: control, low dose of P5P (100 mg/day), medium dose of P5P (250 mg/day), and high dose of P5P (750 mg/day). All dosages are administered orally for 3 weeks.
# The level of depression of the individuals is assessed, both before, and after treatment, using conventional methodologies. These include completion of several depression inventory questionnaire scales including the Cornell Scale for Depression in Dementia, Centre for Epidemiologic Studies Depression Scale, The Geriatric Depression Scale (Short Version), Beck Depression Inventory and the Zung Self-Rating Depression Scale as well as diagnosis by a trained professional according to the DSM-IV. These questionnaires measure depression through questions related to appetite, sadness, worthlessness/inadequacy, concentration, exhaustion, failure, retardation, socialization, isolation, anxiety, irritability, agitation, loss of interest, lack of energy, diurnal mood variation, insomnia, suicidal thoughts, low self-esteem, pessimism, mood congruent delusions, satisfaction, withdrawal, fulfillment, mood, fear, guilt, self-accusations, somatic preoccupation and loss of libido.
# [3] = 250 mg/day vs 750 mg/day orally for 3 weeks
# [4] = P5P 100, 250 or 750 mg/day orally for 3 weeks
compound,measurement,setting,value
vitamin B6,information storage vs matched placebo group,"males, ages 70-79 years",improved information storage
Cc1ncc(CO)c(CO)c1O [pyridoxine],Tolerable Upper Intake Level,healthy people,100 mg
"Cc1ncc(COP(=O)(O)O)c(C=O)c1O [P5P, 3-hydroxy-2-methyl-5-[(phosphonooxy)methyl]-4-pyridine-carboxaldehyde]","tolerability (side effects, evidence of toxicity)",healthy subjects,well tolerated
same,"associative learning and memory, medium vs high dose group",[1]; [3],no significant difference
same,"time after which the number-colour association can be recalled, vs control patients",[1]; [4],significantly longer time
same,effect on ATP induced calcium ion influx into cells,P2 purinoceptors,inhibits
same,"level of depression, medium vs high dose group",[2]; [3],not significantly different
same,"level of depression, medium and high dose groups vs low dose group",[2]; 250 and 750 mg/day vs 100 mg/day orally for 3 weeks,significantly less depressed
same,level of depression vs control individuals,[2]; [4],significantly less depressed
